Experimental data taken from US20240016781A1, “TREATMENT OF KRAS MUTANT CANCERS” (MEI Pharma, Inc., priority 2020, published 2024).
Several values for one entry are separate records, joined by “and”; a condition that tells them apart may be missing. Equal entries are not always repeated. Where two headings read alike, the source gives them in different places.

Assays:
Assay in all cases: 72-hour CellTiter-Glo 2.0 growth inhibition screen (single agent, 9x9 combination dose matrix);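 on Best CI Level: inhibition effect level at which the best CI was calculated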
Assay type in all cases: cell-based
SW48 KRAS (G12D/+) = conditions: for Response Area: Colorectal
SW48 KRAS (G12C/+) = conditions: for Response Area: Colorectal
AsPC-1 = tested on: AsPC-1;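 on Best CI Level: inhibition effect level at which the best CI was calculated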
LS-513 = conditions: for EC50 / Emax: Homo sapiens; for EC50: LS-513, 72 h; for EC50 / Emax / Response Area: LS-513, Colorectal
SW837 = conditions: for EC50: SW837, 72 h
[1] = Homo sapiens, SW48, 72 h, read-out: Max Response (% GI)
[2] = Homo sapiens, SW48, 72 h, read-out: Max Response (% I)
[3] = SW48 KRAS (G12D/+), enhancer + MEI-522 (Voruciclib), 72 h
[4] = enhancer combined with MEI-522 (Voruciclib), SW48 KRAS (G12D/+) (Colorectal), 72 hours, inhibition data
[5] = SW48 KRAS (G12C/+), enhancer + MEI-522 (Voruciclib), 72 h
[6] = enhancer combined with MEI-522 (Voruciclib), SW48 KRAS (G12C/+) (Colorectal), 72 hours, inhibition data
[7] = AsPC-1 (KRAS G12D), enhancer + MEI-522 (Voruciclib), 72 h;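 on Best CI Level: inhibition effect level at which the best CI was calculated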
[8] = enhancer combined with MEI-522 (Voruciclib), AsPC-1 (Pancreas), 72 hours, inhibition data
[9] = Additional Single Agent Responses (inhibition, % I), 72 h
[10] = LS-513 (KRAS G12D), enhancer + MEI-522 (Voruciclib), 72 h;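 on Best CI Level: inhibition effect level at which the best CI was calculated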
[11] = enhancer combined with MEI-522 (Voruciclib), LS-513 (Colorectal), 72 hours, inhibition data
[12] = Homo sapiens, SW837, Colorectal, growth inhibition (GI) curve, single agent, 72 h
[13] = SW837 (KRAS G12C), enhancer + MEI-522 (Voruciclib), 72 h;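 on Best CI Level: inhibition effect level at which the best CI was calculated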
[14] = enhancer combined with MEI-522 (Voruciclib), SW837 (Colorectal), 72 hours, inhibition data

SMILES: C=CC(=O)N1CCN(c2nc(=O)n(-c3c(C)ccnc3C(C)C)c3nc(-c4c(O)cccc4F)c(F)cc23)[C@@H](C)C1 [AMG510]
- Bliss Volume (SW48 KRAS (G12D/+)): −0.98
- EC50 (SW48 KRAS (G12D/+); Homo sapiens, SW48, 72 h): 3000 nM
- Emax (SW48 KRAS (G12D/+); [1]): 15%
- Emax (SW48 KRAS (G12D/+); [2]): 11%
- Response Area (SW48 KRAS (G12D/+); SW48 KRAS (G12D/+), Additional Single Agent Responses (inhibition, % I), 72 h): 0.00
- Response Area (SW48 KRAS (G12D/+); SW48 KRAS (G12D/+), growth inhibition (GI), AUC, single agent, 72 h): 0.00
- Best CI (SW48 KRAS (G12D/+); [3]): 0.55
- Bliss Volume (SW48 KRAS (G12D/+); [3]): 0.17
- Loewe Volume (SW48 KRAS (G12D/+); [3]): 0.13
- Synergy Score (SW48 KRAS (G12D/+); [3]): 2.74
- Best CI (SW48 KRAS (G12D/+); [4]): 1.38
- Loewe Volume (SW48 KRAS (G12D/+); [4]): −0.76
- Synergy Score (SW48 KRAS (G12D/+); [4]): 0.86
- Best CI Level (SW48 KRAS (G12D/+); enhancer combined with MEI-522 (Voruciclib), SW48 KRAS (G12D/+) (Colorectal), 72 hours, inhibition data, unit assumed): 20%
- HSA volume (SW48 KRAS (G12C/+)): 5.42 and 3.57
- Loewe Volume (SW48 KRAS (G12C/+)): 4.73
- EC50 (SW48 KRAS (G12C/+); Homo sapiens, SW48, 72 h): 2.1 nM
- Emax (SW48 KRAS (G12C/+); [1]): 36%
- Emax (SW48 KRAS (G12C/+); [2]): 29%
- Response Area (SW48 KRAS (G12C/+); SW48 KRAS (G12C/+), Additional Single Agent Responses (inhibition, % I), 72 h): 1.47
- Response Area (SW48 KRAS (G12C/+); SW48 KRAS (G12C/+), growth inhibition (GI), AUC, single agent, 72 h): 1.78
- Best CI (SW48 KRAS (G12C/+); [5]): 0.36
- Synergy Score (SW48 KRAS (G12C/+); [5]): 5.97
- Best CI (SW48 KRAS (G12C/+); [6]): 0.62
- Best CI Level (SW48 KRAS (G12C/+); [6]): 60
- Best CI (AsPC-1; [7]): 0.47
- Bliss Volume (AsPC-1; [7]): 2.91
- HSA volume (AsPC-1; [7]): −3.63
- Loewe Volume (AsPC-1; [7]): 0.38
- Synergy Score (AsPC-1; [7]): 0.82
- Response Area (AsPC-1; AsPC-1, Pancreas, Additional Single Agent Responses (inhibition, % I), 72 h): 0.00
- Response Area (AsPC-1; AsPC-1, Pancreas, growth inhibition (GI), AUC, single agent, 72 h): 0.00
- EC50 (AsPC-1; Homo sapiens, ASPC1, AsPC-1, Pancreas, Additional Single Agent Responses (inhibition, % I), 72 h): 3000 nM
- Emax (AsPC-1; Homo sapiens, ASPC1, AsPC-1, Pancreas, Additional Single Agent Responses, 72 h, read-out: Max Response (% I)): 6%
- Emax (AsPC-1; Homo sapiens, ASPC1, AsPC-1, Pancreas, growth inhibition (GI), single agent, 72 h, read-out: Max Response (% GI)): 8%
- Best CI (AsPC-1; [8]): 0.64
- Best CI Level (AsPC-1; [8]): 20
- Bliss Volume (AsPC-1; [8]): 1.95
- HSA volume (AsPC-1; [8]): −2.52
- Loewe Volume (AsPC-1; [8]): 0.26
- Synergy Score (AsPC-1; [8]): 0.32
- EC50 (LS-513; [9]): 321 nM
- EC50 (LS-513; growth inhibition (GI) curve, single agent, 72 h): 320 nM
- Emax (LS-513; Additional Single Agent Responses, 72 h, read-out: Max Response (% I)): 3%
- Emax (LS-513; growth inhibition (GI), single agent, 72 h, read-out: Max Response (% GI)): 4%
- Best CI (LS-513; [10]): 0.70
- Bliss Volume (LS-513; [10]): 0.20
- HSA volume (LS-513; [10]): −2.06
- Loewe Volume (LS-513; [10]): −0.76
- Synergy Score (LS-513; [10]): 1.51
- Response Area (LS-513; [9]): −0.19
- Response Area (LS-513; growth inhibition (GI), AUC, single agent, 72 h): −0.23
- Best CI (LS-513; [11]): 0.82
- Best CI Level (LS-513; [11]): 20
- Bliss Volume (LS-513; [11]): −0.02
- HSA volume (LS-513; [11]): −1.47
- Loewe Volume (LS-513; [11]): −0.89
- Synergy Score (LS-513; [11]): 0.37
- EC50 (SW837; Homo sapiens, SW837, Colorectal, Additional Single Agent Responses (inhibition, % I), 72 h): 9.9 nM
- EC50 (SW837; [12]): 10.4 nM
- Emax (SW837; Homo sapiens, SW837, Colorectal, Additional Single Agent Responses, 72 h, read-out: Max Response (% I)): 37%
- GI50 (SW837; [12]): 162 nM
- Emax (SW837; Homo sapiens, SW837, Colorectal, growth inhibition (GI), single agent, 72 h, read-out: Max Response (% GI)): 56%
- Best CI (SW837; [13]): 0.72
- Bliss Volume (SW837; [13]): 7.24
- HSA volume (SW837; [13]): 6.16
- Loewe Volume (SW837; [13]): 6.02
- Synergy Score (SW837; [13]): 6.03
- Response Area (SW837; SW837, Colorectal, Additional Single Agent Responses (inhibition, % I), 72 h): 1.79
- Response Area (SW837; SW837, Colorectal, growth inhibition (GI), AUC, single agent, 72 h): 2.67
- Best CI (SW837; [14]): 0.64
- Best CI Level (SW837; [14]): 65
- Bliss Volume (SW837; [14]): 2.98
- HSA volume (SW837; [14]): 4.27
- Loewe Volume (SW837; [14]): 4.27
- Synergy Score (SW837; [14]): 2.77
